Source: PubChem BioAssay AID651874 (Southern Research Specialized Biocontainment Screening …, 2012)

Each compound was assayed on VEEV TrD infected cells, viral cytopathic effect inhibition (assay: VEEV TrD cytopathic effect inhibition, confirmation, cell-based, Trinidad donkey strain, set 2 (AID 651874)).

Point of comparison: `CCN1CCN(C)CC1=Nc1ccc([N+](=O)[O-])cc1C(=O)Nc1ccccc1`, IC50 34 nM. Against it:
- CN1CCN(C)C(=Nc2ccc(C#N)cc2C(=O)Nc2cccc(F)c2)C1 — 24-fold higher, 823 nM
- CCN1CCN(Cc2nc3ccc(C#N)cc3c(=O)n2-c2ccccc2)CC1 — 32-fold higher, 1090 nM
- CCN1CCN(Cc2nc3ccc([N+](=O)[O-])cc3c(=O)n2-c2ccccc2)CC1 — 7.1-fold higher, 241 nM
- COc1ccc(-n2c(CN3CCNCC3)nc3ccc([N+](=O)[O-])cc3c2=O)cc1 — 2.8-fold higher, 96.6 nM
- O=c1c2cc([N+](=O)[O-])ccc2nc(CN2CCNCC2)n1-c1ccccc1 — 2.5-fold higher, 86 nM
- O=c1c2cc([N+](=O)[O-])ccc2nc(CN2CCNCC2)n1-c1ccccc1F — 4.4-fold higher, 148 nM
- CNCCCN(C)Cc1nc2ccc([N+](=O)[O-])cc2c(=O)n1-c1ccccc1 — 12-fold higher, 405 nM
- COc1ccc(NC(=O)c2cc([N+](=O)[O-])ccc2N=C2CN(C)CCN2C)cc1 — within 1.5-fold, 45 nM
- CN1CCN(C)C(=Nc2cc(Cl)c(C#N)cc2C(=O)Nc2ccccc2)C1 — 3.3-fold higher, 113 nM
- CN1CCN(C)C(=Nc2ccc(C#N)cc2C(=O)Nc2ccccc2)C1 — 9.4-fold higher, 319 nM
- CCN1CCN(Cc2nc3ccc([N+](=O)[O-])cc3c(=O)n2-c2ccccc2F)CC1 — 16-fold higher, 557 nM
- O=c1c2cc([N+](=O)[O-])ccc2nc(CN2CCNCC2)n1-c1ccsc1 — 27-fold higher, 905 nM
- CCN1CCN(Cc2nc3ncc([N+](=O)[O-])cc3c(=O)n2-c2ccccc2)CC1 — 91-fold higher, 3080 nM
- CCN1CCN(Cc2nc3ccc([N+](=O)[O-])cc3c(=O)n2-c2ccc(F)cc2)CC1 — 18-fold higher, 605 nM
- CN1CCN(Cc2nc3ccc([N+](=O)[O-])cc3c(=O)n2-c2ccccc2F)CC1 — 4.1-fold higher, 139 nM
- CN1CCN(C)C(=Nc2ccc([N+](=O)[O-])cc2C(=O)Nc2ccccc2)C1 — within 1.5-fold, 40.1 nM
- COc1cccc(-n2c(CN3CCNCC3)nc3ccc([N+](=O)[O-])cc3c2=O)c1 — 170-fold higher, 5630 nM
- CN1CCN(C)C(=Nc2ccc([N+](=O)[O-])cc2C(=O)Nc2ccccc2F)C1 — 4.6-fold higher, 158 nM
- CCN1CCN(Cc2nc3ccc([N+](=O)[O-])cc3c(=O)n2-c2cccc(F)c2)CC1 — 8.2-fold higher, 278 nM
